In patent US10246456B2, “IRAK4 inhibiting agents” (BIOGEN MA INC., priority 2014, dated 2019):

How the values were obtained:
IRAK4 = IRAK4 (Homo sapiens (Human), UniProt Q9NWZ3); test: IRAK-4 AlphaScreen biochemical kinase assay; settings: 1 nM IRAK4, 1 mM ATP, 3.5 h at RT
Outline: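 AlphaScreen read-out: streptavidin beads bind the biotinylated peptide and protein A beads bind the anti-phosphothreonine antibody, so energy transfer reports phosphorylation of the peptide. The kinase is human IRAK-4.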

IL-6 in A549 cells = test: Cell-based IL-6 ELISA assay in IL-1beta stimulated A549 cells; settings: 2 ng/ml human IL-1beta overnight
Outline: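 A549 cells (2.5×10^4/well, DMEM/10% FBS) pretreated 30 min at 37 C with compound, 10-point serial dilution from 10 uM, then stimulated overnight with 2 ng/ml human IL-1beta. Secreted IL-6 in supernatant quantified by human IL-6 ELISA.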

IRAK4, sequence (Q9NWZ3 whole entry, species assumed): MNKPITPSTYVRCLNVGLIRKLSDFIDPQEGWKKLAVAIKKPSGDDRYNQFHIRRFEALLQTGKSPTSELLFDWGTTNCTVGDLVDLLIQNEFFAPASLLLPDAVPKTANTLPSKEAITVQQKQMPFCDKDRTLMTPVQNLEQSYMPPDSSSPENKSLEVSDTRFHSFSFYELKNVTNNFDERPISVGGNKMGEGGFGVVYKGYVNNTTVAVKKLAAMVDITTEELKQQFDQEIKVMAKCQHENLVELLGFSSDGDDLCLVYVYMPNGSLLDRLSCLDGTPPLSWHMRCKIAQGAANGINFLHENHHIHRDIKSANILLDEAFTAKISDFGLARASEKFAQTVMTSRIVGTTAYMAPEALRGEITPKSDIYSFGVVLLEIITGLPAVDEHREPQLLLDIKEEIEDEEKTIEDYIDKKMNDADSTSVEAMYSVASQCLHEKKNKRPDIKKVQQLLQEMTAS

| Compound | IC50 (IRAK4) | EC50 (IL-6 in A549 cells) |
| --- | --- | --- |
| COc1cc(-c2cccc([C@@H](N)CCC(F)(F)F)n2)cc2c1cnn2-c1cccc(CO)n1 [Example 502, (S)-(6-(6-(6-(1-amino-4,4,4-trifluorobutyl)pyridin-2-yl)-4-methoxy-1H-indazol-1-yl)pyridin-2-yl)methanol] | < 100 nM | ≤ 1000 nM |
| CC[C@H](N)c1cccc(-c2cc(OC)c3cnn(-c4cncc(CO)n4)c3c2)n1 [Example 503, (S)-(6-(6-(6-(1-aminopropyl)pyridin-2-yl)-4-methoxy-1H-indazol-1-yl)pyrazin-2-yl)methanol] | < 100 nM | ≤ 1000 nM |
| CCC[C@H](N)c1cccc(-c2cc(OC)c3cnn(-c4nccc(C(F)(F)F)n4)c3c2)n1 [Example 504, (S)-1-(6-(4-methoxy-1-(4-(trifluoromethyl)pyrimidin-2-yl)-1H-indazol-6-yl)pyridin-2-yl)butan-1-amine] | < 100 nM | ≤ 1000 nM |
| CCC[C@H](N)c1cccc(-c2cc(OCC)c3cnn(-c4nccc(C(F)(F)F)n4)c3c2)n1 [Example 505, (S)-1-(6-(4-ethoxy-1-(4-(trifluoromethyl)pyrimidin-2-yl)-1H-indazol-6-yl)pyridin-2-yl)butan-1-amine] | < 100 nM | ≤ 1000 nM |
| CCC[C@H](N)c1cccc(-c2cc(OCC3CCCNC3)c3cnn(-c4cccc(CO)n4)c3c2)n1 (stereo partly drawn) [Example 506, (6-(6-(6-((S)-1-aminobutyl)pyridin-2-yl)-4-(piperidin-3-ylmethoxy)-1H-indazol-1-yl)pyridin-2-yl)methanol] | < 100 nM | ≤ 1000 nM |
| CCC(O)C(N)c1cccc(-c2ccc3cnn(-c4cccc(CO)n4)c3c2)n1 (stereo not drawn) [Example 507, 1-amino-1-(6-(1-(6-(hydroxymethyl)pyridin-2-yl)-1H-indazol-6-yl)pyridin-2-yl)butan-2-ol] | < 100 nM | ≤ 1000 nM |
| CC(O)CC(N)c1cccc(-c2ccc3cnn(-c4cccc(CO)n4)c3c2)n1 (stereo not drawn) [Example 508, 4-amino-4-(6-(1-(6-(hydroxymethyl)pyridin-2-yl)-1H-indazol-6-yl)pyridin-2-yl)butan-2-ol] | < 100 nM | ≤ 1000 nM |
| COCCC[C@H](N)c1cccc(-c2cc(OC)c3cnn(-c4cccc(CO)n4)c3c2)n1 [Example 509, (S)-(6-(6-(6-(1-amino-4-methoxybutyl)pyridin-2-yl)-4-methoxy-1H-indazol-1-yl)pyridin-2-yl)methanol] | < 100 nM | ≤ 1000 nM |
| CCOc1cc(-c2cccc([C@@H](N)CCC(F)(F)F)n2)cc2c1cnn2-c1cccc(CO)n1 [Example 510, (S)-(6-(6-(6-(1-amino-4,4,4-trifluorobutyl)pyridin-2-yl)-4-ethoxy-1H-indazol-1-yl)pyridin-2-yl)methanol] | < 100 nM | ≤ 1000 nM |
| CCC[C@H](N)c1cccc(-c2cc(C#N)c3cnn(-c4cccc(CO)n4)c3c2)n1 [Example 511, (S)-6-(6-(1-aminobutyl)pyridin-2-yl)-1-(6-(hydroxymethyl)pyridin-2-yl)-1H-indazole-4-carbonitrile] | < 100 nM | ≤ 1000 nM |
| CC[C@H](N)c1cccc(-c2ccc3cnn(-c4nccc(C(F)F)n4)c3c2)n1 [Example 512, (S)-1-(6-(1-(4-(difluoromethyl)pyrimidin-2-yl)-1H-indazol-6-yl)pyridin-2-yl)propan-1-amine] | < 100 nM | ≤ 1000 nM |

Other lines, results leading:

| IC50 (IRAK4) | EC50 (IL-6 in A549 cells) | Compound |
| --- | --- | --- |
| < 100 nM | ≤ 1000 nM | CCC[C@H](N)c1cccc(-c2cc(OC)c3cnn(-c4cncc(CO)n4)c3c2)n1 [Example 489, (S)-(6-(6-(6-(1-aminobutyl)pyridin-2-yl)-4-methoxy-1H-indazol-1-yl)pyrazin-2-yl)methanol] |
| < 100 nM | ≤ 1000 nM | CCC[C@H](N)c1cccc(-c2cc(Cl)c3cnn(-c4cccc(CO)n4)c3c2)n1 [Example 490, (S)-(6-(6-(6-(1-aminobutyl)pyridin-2-yl)-4-chloro-1H-indazol-1-yl)pyridin-2-yl)methanol] |
| < 100 nM | ≤ 1000 nM | CCC[C@H](N)c1cccc(-c2cc(C(F)F)c3cnn(-c4cccc(CO)n4)c3c2)n1 [Example 491, (S)-(6-(6-(6-(1-aminobutyl)pyridin-2-yl)-4-(difluoromethyl)-1H-indazol-1-yl)pyridin-2-yl)methanol] |
| < 100 nM | ≤ 1000 nM | CCC[C@H](N)c1cccc(-c2cc(CO)c3cnn(-c4cccc(CO)n4)c3c2)n1 [Example 492, (S)-(6-(6-(1-aminobutyl)pyridin-2-yl)-1-(6-(hydroxymethyl)pyridin-2-yl)-1H-indazol-4-yl)methanol] |
| < 100 nM | ≤ 1000 nM | CCCC[C@H](N)c1cccc(-c2ccc3cnn(-c4cccc(CO)n4)c3c2)n1 [Example 493, (S)-(6-(6-(6-(1-aminopentyl)pyridin-2-yl)-1H-indazol-1-yl)pyridin-2-yl)methanol] |
| < 100 nM | ≤ 1000 nM | CCC[C@H](N)c1cccc(-c2cc(C3=CCOCC3)c3cnn(-c4cccc(CO)n4)c3c2)n1 [Example 494, (S)-(6-(6-(6-(1-aminobutyl)pyridin-2-yl)-4-(3,6-dihydro-2H-pyran-4-yl)-1H-indazol-1-yl)pyridin-2-yl)methanol] |
| < 100 nM | ≤ 1000 nM | CCC[C@H](N)c1cccc(-c2cc(COC)c3cnn(-c4cccc(CO)n4)c3c2)n1 [Example 495, (S)-(6-(6-(6-(1-aminobutyl)pyridin-2-yl)-4-(methoxymethyl)-1H-indazol-1-yl)pyridin-2-yl)methanol] |
| < 100 nM | ≤ 1000 nM | COc1cc(-c2cccc([C@@H](N)C3CC3)n2)cc2c1cnn2-c1cncc(CO)n1 [Example 496, (S)-(6-(6-(6-(amino(cyclopropyl)methyl)pyridin-2-yl)-4-methoxy-1H-indazol-1-yl)pyrazin-2-yl)methanol] |
| < 100 nM | ≤ 1000 nM | CCC[C@H](N)c1cccc(-c2cc(COC(F)F)c3cnn(-c4cccc(CO)n4)c3c2)n1 [Example 497, (S)-(6-(6-(6-(1-aminobutyl)pyridin-2-yl)-4-((difluoromethoxy)methyl)-1H-indazol-1-yl)pyridin-2-yl)methanol] |
| < 100 nM | ≤ 1000 nM | CCC[C@H](N)c1cccc(-c2cc(CN3CCOCC3)c3cnn(-c4cccc(CO)n4)c3c2)n1 [Example 498, (S)-(6-(6-(6-(1-aminobutyl)pyridin-2-yl)-4-(morpholinomethyl)-1H-indazol-1-yl)pyridin-2-yl)methanol] |
| < 100 nM | ≤ 1000 nM | CCC[C@H](N)c1cccc(-c2cc(OCC)c3cnn(-c4cncc(CO)n4)c3c2)n1 [Example 499, (S)-(6-(6-(6-(1-aminobutyl)pyridin-2-yl)-4-ethoxy-1H-indazol-1-yl)pyrazin-2-yl)methanol] |
| < 100 nM | ≤ 1000 nM | CCOc1cc(-c2cccc([C@@H](N)CC)n2)cc2c1cnn2-c1cncc(CO)n1 [Example 500, (S)-(6-(6-(6-(1-aminopropyl)pyridin-2-yl)-4-ethoxy-1H-indazol-1-yl)pyrazin-2-yl)methanol] |
| < 100 nM | ≤ 1000 nM | CCOc1cc(-c2cccc([C@@H](N)C3CC3)n2)cc2c1cnn2-c1cncc(CO)n1 [Example 501, (S)-(6-(6-(6-(amino(cyclopropyl)methyl)pyridin-2-yl)-4-ethoxy-1H-indazol-1-yl)pyrazin-2-yl)methanol] |
